Experimental data from patent US9512128B2 (BAYER CROPSCIENCE AG, priority 2012, dated 2016).
Where two headings read alike, the source gives them in different places.

Experiment: log P by HPLC on reversed-phase columns (C 18), EEC directive 79/831 Annex V.A8
Type: physicochemical
Conditions: for chromatographic logP: reversed-phase C18 HPLC column; for logP[a]: method [a]; for logP[b]: method [b]
Protocol: The log P values were determined according to EEC directive 79/831 Annex V.A8 by HPLC (High Performance Liquid Chromatography) on reversed-phase columns (C 18), using the methods below:
[a] The LC-MS determination in the acidic range is carried out at pH 2.7 with 0.1% aqueous formic acid and acetonitrile (contains 0.1% formic acid) as mobile phases; linear gradient from 10% acetonitrile to 95% acetonitrile.
[b] The LC-MS determination in the neutral range is carried out at pH 7.8 using the mobile phases 0.001 molar aqueous ammonium bicarbonate solution and acetonitrile; linear gradient from 10% acetonitrile to 95% acetonitrile.

[1] = pH 2.7, acidic range, pH 2.7, 0.1% aqueous formic acid / acetonitrile, read-out: log P[a]
[2] = pH 7.8, neutral range, pH 7.8, 0.001 molar aqueous ammonium bicarbonate / acetonitrile, read-out: log P[b]
[3] = pH 2.7, method [a], read-out: logP[a]
[4] = pH 7.8, method [b], read-out: logP[b]

| SMILES | logP[a] | logP[b] | further results |
| --- | --- | --- | --- |
| Cc1ccc(Br)cc1SSc1cc(Br)ccc1C | – | – | chromatographic logP [1]: > 7.36; chromatographic logP [2]: > 7.36 |
| Cn1ncc2c(=O)n(-c3cc([S+]([O-])CC(F)(F)F)c(Cl)cc3Cl)cnc21 (racemic) [Compound 4] | 2.11 | 2.09 | – |
| Cc1cc(C)c([S+]([O-])CC(F)(F)F)cc1-n1cnc2c(cnn2C)c1=O (racemic) [Compound 9] | 1.74 | 1.74 | – |
| Cc1cc(C)c([S+]([O-])CC(F)(F)F)cc1-n1c(C)nc2c(cnn2C)c1=O (racemic) [Compound 10] | 1.86 | 1.84 | – |
| Cc1cc(F)c(-n2c(C)nc3c(cnn3CC(F)(F)F)c2=O)cc1[S+]([O-])CC(F)(F)F (racemic) [Compound 22] | 2.52 | – | – |
| Cn1ncc2c(=O)n(-c3ccc(Cl)c([S+]([O-])CC(F)(F)F)c3)cnc21 (racemic) [Compound 28] | 1.80 | 1.80 | – |
| Cn1ncc2c(=O)n(-c3ccc(C(F)(F)F)c([S+]([O-])CC(F)(F)F)c3)cnc21 (racemic) [Compound 29] | 2.16 | 2.11 | – |
| Cc1cc(C)c([S+]([O-])CC(F)(F)F)cc1-n1cnc2c(ncn2C)c1=O (racemic) [Compound 58] | 1.43 | 1.40 | – |
| Cc1cc(C)c([S+]([O-])CC(F)(F)F)cc1-n1c(C)nc2c(ncn2C)c1=O (racemic) [Compound 59] | 1.52 | 1.50 | – |
| Cc1ccc(B2OC(C)(C)C(C)(C)O2)cc1SCC(F)(F)F [4,4,5,5-Tetramethyl-2-{4-methyl-3-[(2,2,2-trifluoroethyl)sulphanyl]phenyl}-1,3,2-dioxaborolane] | – | – | chromatographic logP [1]: 3.73; chromatographic logP [2]: 3.74 |
| Cc1cc(F)c(NC(=O)c2cnn(C)c2N)cc1SCC(F)(F)F [5-Amino-N-{2-fluoro-4-methyl-5-[(2,2,2-trifluoroethyl)sulphanyl]phenyl}-1-methyl-1H-pyrazole-4-carboxamide] | – | – | chromatographic logP [1]: 2.44; chromatographic logP [2]: 2.23 |
| Cc1ccc(Br)cc1S(=O)(=O)Cl [5-Bromo-2-methylbenzenesulphonyl chloride] | – | – | chromatographic logP [1]: 3.73; chromatographic logP [2]: 3.74 |
| Cn1ncc2c(=O)n(-c3cc(SCC(F)(F)F)c(Cl)cc3Cl)cnc21 [Compound 3] | 2.94 | 2.94 | – |
| Cc1nc2c(cnn2C)c(=O)n1-c1cc(SCC(F)(F)F)c(Cl)cc1Cl [Compound 5] | 3.18 | 3.11 | – |
| Cc1cc(C)c(-n2c(C)nc3c(cnn3C)c2=O)cc1SCC(F)(F)F [Compound 6] | 2.92 | 2.86 | – |
| Cc1cc(C)c(-n2cnc3c(cnn3C)c2=O)cc1SCC(F)(F)F [Compound 7] | 2.79 | 2.73 | – |
| Cc1ccc(-n2cnc3c(cnn3C)c2=O)cc1SCC(F)(F)F [Compound 8] | 2.56 | 2.54 | – |
| Cc1cc(C)c(-n2c(C(F)(F)F)nc3c(cnn3C)c2=O)cc1SCC(F)(F)F [Compound 11] | 3.83 | 3.77 | – |
| Cc1cc(F)c(-n2c(C(F)(F)F)nc3c(cnn3C)c2=O)cc1SCC(F)(F)F [Compound 13, 5-{2-Fluoro-4-methyl-5-[(2,2,2-trifluoroethyl)sulphanyl]phenyl}-1-methyl-6-(trifluoromethyl)-1,5-dihydro-4H-pyrazolo[3,4-d]pyrimidin-4-one] | – | – | chromatographic logP [1]: 3.75; chromatographic logP [3]: 3.75; chromatographic logP [4]: 3.94; chromatographic logP [2]: 3.94 |
| Cc1cc(F)c(-n2c(C)nc3c(cnn3C)c2=O)cc1SCC(F)(F)F [Compound 14, 5-{2-Fluoro-4-methyl-5-[(2,2,2-trifluoroethyl)sulphanyl]phenyl}-1,6-dimethyl-1,5-dihydro-4H-pyrazolo[3,4-d]pyrimidin-4-one] | – | – | chromatographic logP [1]: 2.84; chromatographic logP [3]: 2.84; chromatographic logP [4]: 2.79; chromatographic logP [2]: 2.79 |
| Cc1cc(F)c(-n2c(C(F)(F)F)nc3c(cnn3C)c2=O)cc1[S+]([O-])CC(F)(F)F (stereo not shown) [Compound 16, 5-{2-Fluoro-4-methyl-5-[(2,2,2-trifluoroethyl)sulphinyl]phenyl}-1-methyl-6-(trifluoromethyl)-1,5-dihydro-4H-pyrazolo[3,4-d]pyrimidin-4-one] | – | – | log P[a] (acidic range, pH 2.7, 0.1% aqueous formic acid / acetonitrile): 2.74; log P[b] (neutral range, pH 7.8, 0.001 molar aqueous ammonium bicarbonate / acetonitrile): 2.70; chromatographic logP [1]: 2.67; chromatographic logP [3]: 2.67; chromatographic logP [4]: 2.63; chromatographic logP [2]: 2.63 |
| Cc1cc(F)c(-n2cnc3c(cnn3CC(F)(F)F)c2=O)cc1SCC(F)(F)F [Compound 17] | 3.31 | 3.21 | – |
| Cn1ncc2c(=O)n(-c3ccc(Cl)c(SCC(F)(F)F)c3)cnc21 [Compound 23] | 2.58 | 2.53 | – |
| Cn1ncc2c(=O)n(-c3ccc(C#N)c(SCC(F)(F)F)c3)cnc21 [Compound 24] | 2.07 | 2.06 | – |
| Cn1ncc2c(=O)n(-c3ccc(C(F)(F)F)c(SCC(F)(F)F)c3)cnc21 [Compound 25] | 2.82 | 2.75 | – |
| Cc1ccc(-n2cnc3c(c(C)nn3C)c2=O)cc1SCC(F)(F)F [Compound 30] | 2.81 | 2.73 | – |
| Cc1nn(C)c2ncn(-c3ccc(C(F)(F)F)c(SCC(F)(F)F)c3)c(=O)c12 [Compound 31] | 3.06 | 2.99 | – |

| SMILES | logP[a] | logP[b] | further results |
| --- | --- | --- | --- |
| Cc1nn(C)c2ncn(-c3ccc(C#N)c([S+]([O-])CC(F)(F)F)c3)c(=O)c12 (stereo not shown) [Compound 35] | 1.74 | 1.70 | – |
| Cc1cc(F)c(-n2c(C(F)(F)F)nc3nn(C)cc3c2=O)cc1SCC(F)(F)F [Compound 42] | 3.27 | 3.19 | – |
| Cc1ccc(-n2cnc3nn(C)c(C)c3c2=O)cc1SCC(F)(F)F [Compound 44] | 2.38 | 2.33 | – |
| Cc1c2c(=O)n(-c3ccc(Cl)c(SCC(F)(F)F)c3)cnc2nn1C [Compound 48] | 2.45 | 2.36 | – |
| Cc1c2c(=O)n(-c3ccc(C#N)c(SCC(F)(F)F)c3)cnc2nn1C [Compound 50] | 1.99 | 1.92 | – |
| Cc1cc(C)c(-n2cnc3c(ncn3C)c2=O)cc1SCC(F)(F)F [Compound 55] | 2.28 | 2.23 | – |
| Cc1cc(C)c(-n2c(C)nc3c(ncn3C)c2=O)cc1SCC(F)(F)F [Compound 56] | 2.36 | 2.35 | – |
| Cn1cnc2c(=O)n(-c3cc(SCC(F)(F)F)c(Cl)cc3F)cnc21 [Compound 57] | 2.19 | 2.17 | – |
| Cc1cc(C)c(-n2cnc3scnc3c2=O)cc1SCC(F)(F)F [Compound 62] | 2.67 | 2.64 | – |
| Cc1cc(F)c(-n2c(C(F)(F)F)nc3scnc3c2=O)cc1SCC(F)(F)F [Compound 65] | 3.55 | 3.51 | – |
| O=c1c2ncsc2ncn1-c1cc([S+]([O-])CC(F)(F)F)c(Cl)cc1Cl (stereo not shown) [Compound 67] | 1.96 | 1.96 | – |
| Cc1nc2c(=O)n(-c3cc(SCC(F)(F)F)c(Cl)cc3Cl)cnc2s1 [Compound 71] | 3.09 | 3.02 | – |
| Cc1nc2c(=O)n(-c3cc([S+]([O-])CC(F)(F)F)c(Cl)cc3Cl)cnc2s1 (stereo not shown) [Compound 74] | 2.22 | 2.17 | – |
| O=c1c2scnc2ncn1-c1cc(SCC(F)(F)F)c(Cl)cc1Cl [Compound 77] | 2.79 | 2.76 | – |
| O=c1c2scnc2ncn1-c1cc([S+]([O-])CC(F)(F)F)c(Cl)cc1Cl (stereo not shown) [Compound 80] | 2.01 | 1.98 | – |
| Cc1cc(C)c([S+]([O-])CC(F)(F)F)cc1-n1cnc2ncsc2c1=O (stereo not shown) [Compound 81] | 1.65 | 1.62 | – |
| Cc1ccc(-n2cnc3sccc3c2=O)cc1SCC(F)(F)F [Compound 83, 3-{4-Methyl-3-[(2,2,2-trifluoroethyl)sulphanyl]phenyl}thieno[2,3-d]pyrimidin-4(3H)-one] | – | – | chromatographic logP [1]: 3.04; chromatographic logP [3]: 3.09; chromatographic logP [4]: 3.01; chromatographic logP [2]: 3.02 |
| COc1ccc(-n2cnc3sccc3c2=O)cc1SCC(F)(F)F [Compound 84] | 2.75 | 2.71 | – |
| O=c1c2ccsc2ncn1-c1ccc(Cl)c(SCC(F)(F)F)c1 [Compound 85] | 3.09 | 3.03 | – |
| O=c1c2ccsc2ncn1-c1cc(SCC(F)(F)F)c(Cl)cc1Cl [Compound 90] | 3.51 | 3.42 | – |
| N#Cc1ccc(-n2cnc3sccc3c2=O)cc1SCC(F)(F)F [Compound 93] | 2.48 | 2.46 | – |
| O=c1c2ccsc2ncn1-c1ccc(C(F)(F)F)c(SCC(F)(F)F)c1 [Compound 94] | 3.27 | 3.21 | – |
| O=c1c2ccsc2ncn1-c1cc([S+]([O-])CC(F)(F)F)c(Cl)cc1Cl (stereo not shown) [Compound 98] | 2.53 | 2.53 | – |
| O=c1c2ccsc2ncn1-c1ccc(C(F)(F)F)c([S+]([O-])CC(F)(F)F)c1 (stereo not shown) [Compound 99] | 2.54 | 2.51 | – |
| Cc1ccc(-n2cnc3ccsc3c2=O)cc1SCC(F)(F)F [Compound 100] | 2.87 | 2.79 | – |
| Cc1ccc(-n2cnc3ccsc3c2=O)cc1[S+]([O-])CC(F)(F)F (stereo not shown) [Compound 101] | 1.82 | 1.81 | – |
